In PubChem BioAssay (NCI):
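1) Cells in 96-well plates. 2) Compound, 48 h, 5 concentrations. 3) Linear interpolation between surrounding doses. 4) Unreached endpoint = highest concentration. The concentration for full growth arrest is given as TGI.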

Assays:
Assay in all cases: NCI anticancer screen, dose series, 48 h
[1] = test system: 786-0 renal
[2] = test system: A498 renal
[3] = test system: A549 NSCLC
[4] = test system: ACHN renal
[5] = test system: CAKI-1 renal
[6] = test system: CCRF-CEM leukemia
[7] = test system: COLO 205 colon
[8] = test system: DLD-1 colon
[9] = test system: DMS 114 small cell lung
[10] = test system: DMS 273 small cell lung
[11] = test system: EKVX NSCLC
[12] = test system: HCC-2998 colon
[13] = test system: HCT-116 colon
[14] = test system: HCT-15 colon
[15] = test system: HL-60(TB) leukemia
[16] = test system: HOP-18 NSCLC
[17] = test system: HOP-62 NSCLC
[18] = test system: HT29 colon
[19] = test system: IGROV1 ovarian
[20] = test system: K-562 leukemia
[21] = test system: KM12 colon
[22] = test system: KM20L2 colon
[23] = test system: LOX IMVI melanoma
[24] = test system: LXFL 529 NSCLC
[25] = test system: M14 melanoma
[26] = test system: M19-MEL melanoma
[27] = test system: MALME-3M melanoma
[28] = test system: MOLT-4 leukemia
[29] = test system: NCI-H226 lung
[30] = test system: NCI-H23 lung
[31] = test system: NCI-H460 lung
[32] = test system: NCI-H522 lung
[33] = test system: OVCAR-3 ovarian
[34] = test system: OVCAR-4 ovarian
[35] = test system: OVCAR-5 ovarian
[36] = test system: OVCAR-8 ovarian
[37] = test system: RPMI-8226 leukemia
[38] = test system: RXF 393 renal
[39] = test system: SF-268 CNS
[40] = test system: SF-295 CNS
[41] = test system: SK-MEL-2 melanoma
[42] = test system: SK-MEL-28 melanoma
[43] = test system: SK-MEL-5 melanoma
[44] = test system: SK-OV-3 ovarian
[45] = test system: SN12C renal
[46] = test system: SNB-19 CNS
[47] = test system: SNB-75 CNS
[48] = test system: SR leukemia
[49] = test system: SW-620 colon
[50] = test system: TK-10 renal
[51] = test system: U251 CNS
[52] = test system: UACC-257 melanoma
[53] = test system: UACC-62 melanoma
[54] = test system: UO-31 renal
[55] = test system: HOP-92 NSCLC
[56] = test system: SF-539 CNS
[57] = test system: SNB-78 CNS

O=C(O)C1=Cc2cccc3cccc(c23)C1=O
TGI [1]: > 100 µM
TGI [2]: 73.5 µM
TGI [3]: > 100 µM
TGI [4]: > 100 µM
TGI [5]: > 100 µM
TGI [6]: > 100 µM
TGI [7]: > 100 µM
TGI [8]: > 100 µM
TGI [9]: > 100 µM
TGI [10]: > 100 µM
TGI [11]: > 100 µM
TGI [12]: > 100 µM
TGI [13]: > 100 µM
TGI [14]: > 100 µM
TGI [15]: > 100 µM
TGI [16]: > 100 µM
TGI [17]: > 100 µM
TGI [18]: > 100 µM
TGI [19]: > 100 µM
TGI [20]: > 100 µM
TGI [21]: > 100 µM
TGI [22]: > 100 µM
TGI [23]: > 100 µM
TGI [24]: > 100 µM
TGI [25]: > 100 µM
TGI [26]: > 100 µM
TGI [27]: > 100 µM
TGI [28]: > 100 µM
TGI [29]: > 100 µM
TGI [30]: > 100 µM
TGI [31]: > 100 µM
TGI [32]: > 100 µM
TGI [33]: > 100 µM
TGI [34]: > 100 µM
TGI [35]: > 100 µM
TGI [36]: > 100 µM
TGI [37]: > 100 µM
TGI [38]: > 100 µM
TGI [39]: > 100 µM
TGI [40]: > 100 µM
TGI [41]: > 100 µM
TGI [42]: > 100 µM
TGI [43]: > 100 µM
TGI [44]: > 100 µM
TGI [45]: > 100 µM
TGI [46]: > 100 µM
TGI [47]: > 100 µM
TGI [48]: > 100 µM
TGI [49]: > 100 µM
TGI [50]: > 100 µM
TGI [51]: > 100 µM
TGI [52]: > 100 µM
TGI [53]: > 100 µM
TGI [54]: > 100 µM

Cc1c(-c2coc(-c3ccc([N+](=O)[O-])cc3)n2)c(=O)n(-c2ccccc2)n1C
TGI [1]: > 100 µM
TGI [2]: > 100 µM
TGI [3]: > 100 µM
TGI [4]: > 100 µM
TGI [6]: > 100 µM
TGI [7]: > 100 µM
TGI [8]: > 100 µM
TGI [9]: > 100 µM
TGI [10]: > 100 µM
TGI [11]: > 100 µM
TGI [12]: > 100 µM
TGI [13]: > 100 µM
TGI [14]: > 100 µM
TGI [15]: > 100 µM
TGI [17]: > 100 µM
TGI [55]: > 100 µM
TGI [18]: > 100 µM
TGI [19]: > 100 µM
TGI [21]: > 100 µM
TGI [22]: > 100 µM
TGI [23]: > 100 µM
TGI [24]: > 100 µM
TGI [25]: > 100 µM
TGI [26]: > 100 µM
TGI [27]: > 100 µM
TGI [28]: > 100 µM
TGI [29]: > 100 µM
TGI [30]: > 100 µM
TGI [31]: > 100 µM
TGI [32]: > 100 µM
TGI [33]: > 100 µM
TGI [34]: > 100 µM
TGI [35]: > 100 µM
TGI [36]: > 100 µM
TGI [37]: > 100 µM
TGI [39]: > 100 µM
TGI [40]: > 100 µM
TGI [56]: > 100 µM
TGI [41]: > 100 µM
TGI [42]: > 100 µM
TGI [43]: > 100 µM
TGI [44]: > 100 µM
TGI [45]: > 100 µM
TGI [47]: > 100 µM
TGI [57]: > 100 µM
TGI [50]: > 100 µM
TGI [51]: > 100 µM
TGI [52]: > 100 µM
TGI [53]: > 100 µM
TGI [54]: > 100 µM
